The text below walks through data of ChEMBL document CHEMBL5154693, “N-Methylpropargylamine-Conjugated Hydroxamic Acids as Dual Inhibitors of Monoamine Oxidase A and Histone Deacetylase for Glioma Treatment” (J Med Chem, 2022).

As usually defined, the IC50 is the midpoint of a concentration-inhibition curve. For orientation: inhibition means the change of the read-out against control, counted positive when it falls. Higher therefore signals strong suppression.

For data set [1], the system named is U-251. Description: cells. The class given is functional, cell-based. As to conditions: Homo sapiens, U-251, 48 h.
Description: Cytotoxicity against human TMZ-sensitive U251 cells assessed as inhibition of cell growth incubated for 48 hrs by MTT assay
The test system of data set [2] is Mus musculus. Description: In vivo inhibition of MAO-A in mouse xenografted with mouse GL26 assessed as decrease in MAO activity in tumor at 10 mg/kg by radiometric analysis. The class given is functional, organism-based.
In data set [3] the test system is U-251. The data set can be described thus: cells. The class given is functional, cell-based. As to conditions: Homo sapiens, U-251, 48 h. This is another data set of the same source.
Description: Cytotoxicity against human TMZ-resistant U251 cells assessed as inhibition of cell growth incubated for 48 hrs by MTT assay
A short description of data set [4]: Toxicity in mouse bearing intracranial tumor assessed as median survival time at 5 mg/kg, ip in presence of SAHA for 10 days (Rvb=13.8 days). It counts as organism-based. As to conditions: in vivo, 240 h, time 10 day.
The nature of data set [5]: Toxicity in mouse bearing intracranial tumor assessed as median survival time at 10 mg/kg, ip in presence of SAHA for 10 days (Rvb=13.8 days). The class given is organism-based. As to conditions: in vivo, 240 h, time 10 day.
Data set [6] can be described thus: Toxicity in mouse bearing intracranial tumor assessed as last day of survival at 10 mg/kg, ip treatment started at 7 dpi (Rvb=19 days). It counts as organism-based. Particulars: in vivo, 456 h.
The nature of data set [7]: Toxicity in mouse bearing intracranial tumor assessed as last day of survival at 5 mg/kg, ip in presence of SAHA for 10 days (Rvb=16 days). It counts as organism-based. Particulars: in vivo, 240 h, time 10 day.
Data set [8] in a line: Toxicity in mouse bearing intracranial tumor assessed as last day of survival at 10 mg/kg, ip in presence of SAHA for 10 days (Rvb=16 days). It counts as organism-based. As to conditions: in vivo, 240 h, time 10 day.
The nature of data set [9]: Toxicity in mouse bearing intracranial tumor assessed as assessed as […] at 10 mg/kg, ip for 14 days treatment started at 5 days post-infection (Rvb=14 days). It counts as organism-based. As to conditions: in vivo, 336 h, time 14 day.
For data set [10], the system named is Mus musculus. The data set can be described thus: In vivo inhibition of MAO-A in mouse xenografted with mouse GL26 cells as decrease in MAO activity in brain at 10 mg/kg by radiometric analysis. The class given is functional, organism-based.
The nature of data set [11]: Toxicity in mouse bearing intracranial tumor assessed as assessed as median survival time at 10 mg/kg, ip treatment started at 7 dpi (Rvb=18.25 days). The class given is organism-based. As to conditions: in vivo, 438 h.
Data set [12] can be described thus: Toxicity in mouse bearing intracranial tumor assessed as last day of survival at 10 mg/kg,ip for 10 days (Rvb=16 days). Particulars: in vivo, 240 h, time 10 day. The class given is organism-based.
In data set [13] the target is T1, Amine oxidase [flavin-containing] B (Mus musculus, UniProt Q8BW75).
T1 sequence (Q8BW75 whole entry): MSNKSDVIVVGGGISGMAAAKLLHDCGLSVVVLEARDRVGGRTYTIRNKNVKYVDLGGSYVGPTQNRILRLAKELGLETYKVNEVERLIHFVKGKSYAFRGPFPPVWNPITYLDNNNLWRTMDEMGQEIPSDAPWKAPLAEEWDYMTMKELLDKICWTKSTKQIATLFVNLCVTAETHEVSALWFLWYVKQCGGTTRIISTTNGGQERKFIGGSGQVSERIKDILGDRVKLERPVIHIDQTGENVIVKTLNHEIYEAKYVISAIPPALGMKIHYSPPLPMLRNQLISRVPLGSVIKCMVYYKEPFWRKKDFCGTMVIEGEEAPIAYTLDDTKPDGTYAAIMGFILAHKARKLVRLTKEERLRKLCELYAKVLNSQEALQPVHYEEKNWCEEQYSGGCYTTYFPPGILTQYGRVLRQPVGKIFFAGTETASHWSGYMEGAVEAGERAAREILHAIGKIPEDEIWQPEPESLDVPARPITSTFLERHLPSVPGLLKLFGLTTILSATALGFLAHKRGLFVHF
The data set can be described thus: Inhibition of wild type MAO-B in mouse brain using methyl ester luciferin as substrate at 1 uM pre-incubated for 15 mins followed by substrate addition measured after 1 hr by MAO-Glo assay relative to control. The class given is tissue-based.

Data set [14] in a line: Cytotoxicity against mouse GL26 cells assessed as inhibition of cell growth incubated for 48 hrs by MTT assay. It counts as functional, cell-based. As to conditions: GL26, 48 h. (In general: Tetrazolium assays rely on reduction of a dye to a coloured formazan, in cell work by metabolically active cells.)
The nature of data set [15]: Toxicity in mouse bearing intracranial tumor assessed as median survival time at 10 mg/kg, ip for 10 days (Rvb= 13.8 days). The class given is organism-based. Particulars: in vivo, 240 h, time 10 day.
The nature of data set [16]: Toxicity in mouse bearing intracranial tumor assessed as assessed as median survival time at 10 mg/kg, ip for 14 days treatment started at 5 days post-infection (Rvb=12.8 days). The class given is organism-based. Particulars: in vivo, 336 h, time 14 day.

Molecules are shown by their SMILES. Activity calls are given as the source filed them. No cut-off for these calls is given here. Bounds are passed on as bounds.

Regarding `C#CCN(C)CCCOc1ccc(Cl)cc1Cl` [CLORGILINE], the IC50 in data set [1] was 175 µM; in data set [3] it was 136 µM; in data set [14] it was 169 µM. Besides, the outcome in data set [2] and in data set [10] was Active. For the same molecule, the MST worked out at 13.8 days in [4], 14.4 days in data set [5], 11.75 days in [9] and 17.25 days in data set [11]. The Survival amounted to 19 days in data set [6]; 14 days in [7]; 18 days in data set [8]; 17 days in data set [12]; 13.8 days in data set [15]; 15 days in data set [16]. This molecule also had an inhibition at 1 µM in data set [13] of under 25%.
